Laboratory results from patent publication US20220386606A1, “SPECIFICALLY SUBSTITUTED 3-PHENYL-5-SPIROCYCLOPENTYL-3-PYRROLIN-2-ONES AND THEIR USE AS HERBICIDES” (Bayer Aktiengesellschaft, priority 2019, published 2022).

How the values were obtained:
[1] = tested on: ALOMY; assay: Pre-emergence herbicidal action against ALOMY; assay type: in vivo, Alopecurus myosuroides; conditions: 320 g/ha, scored visually after 3 weeks vs untreated controls
Summary of the method: (§1)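 Sandy loam, wood-fiber pots, seeds covered with soil. Spray onto soil surface: aqueous WP/EC, 600 to 800 L/ha, 0.2% wetting agent. Greenhouse 3 weeks; visual % score vs untreated controls.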

[2] = tested on: AVEFA; assay: Pre-emergence herbicidal action against AVEFA; assay type: in vivo, Avena fatua; conditions: 320 g/ha, scored visually after 3 weeks vs untreated controls
Summary of the method: as §1

[3] = tested on: DIGSA; assay: Pre-emergence herbicidal action against DIGSA; assay type: in vivo, Digitaria sanguinalis; conditions: 320 g/ha, scored visually after 3 weeks vs untreated controls
Summary of the method: as §1

[4] = tested on: ECHCG; assay: Pre-emergence herbicidal action against ECHCG; assay type: in vivo, Echinochloa crus-galli; conditions: 320 g/ha, scored visually after 3 weeks vs untreated controls
Summary of the method: as §1

[5] = tested on: LOLRI; assay: Pre-emergence herbicidal action against LOLRI (Table 8, titled post-emergence at 320 g/ha); assay type: in vivo, Lolium rigidum; conditions: table stands in the pre-emergence section
Summary of the method: as §1

[6] = tested on: SETVI; assay: Pre-emergence herbicidal action against SETVI; assay type: in vivo, Setaria viridis; conditions: 320 g/ha, scored visually after 3 weeks vs untreated controls
Summary of the method: as §1

[7] = tested on: AMARE; assay: Pre-emergence herbicidal action against AMARE; assay type: in vivo, Amaranthus retroflexus; conditions: 320 g/ha
Summary of the method: as §1

[8] = tested on: VIOTR; assay: Pre-emergence herbicidal action against VIOTR; assay type: in vivo, Viola tricolor; conditions: 320 g/ha
Summary of the method: as §1

[9] = tested on: VERPE; assay: Pre-emergence herbicidal action against VERPE; assay type: in vivo, Veronica persica; conditions: 320 g/ha
Summary of the method: as §1

[10] = tested on: ALOMY; assay: Post-emergence herbicidal action against ALOMY; assay type: in vivo, Alopecurus myosuroides; conditions: 80 g/ha, visual assessment after about 3 weeks
Summary of the method: (§2)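 Sow in sandy loam and grow in the greenhouse for 2 to 3 weeks to the one-leaf stage. Spray the compound as an aqueous suspension or emulsion with 0.2% wetting agent, 600 to 800 l/ha water rate. Hold about 3 weeks, then score damage visually versus controls.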

[11] = tested on: AVEFA; assay: Post-emergence herbicidal action against AVEFA; assay type: in vivo, Avena fatua; conditions: 80 g/ha, visual assessment after about 3 weeks
Summary of the method: as §2

[12] = tested on: DIGSA; assay: Post-emergence herbicidal action against DIGSA; assay type: in vivo, Digitaria sanguinalis; conditions: 80 g/ha, visual assessment about 3 weeks after treatment vs untreated controls
Summary of the method: as §2

[13] = tested on: ECHCG; assay: Post-emergence herbicidal action against ECHCG; assay type: in vivo, Echinochloa crus-galli; conditions: 80 g/ha, visual assessment about 3 weeks after treatment vs untreated controls
Summary of the method: as §2

[14] = tested on: LOLRI; assay: Post-emergence herbicidal action against LOLRI; assay type: in vivo, Lolium rigidum; conditions: 80 g/ha, visual assessment about 3 weeks after treatment vs untreated controls
Summary of the method: as §2

[15] = tested on: SETVI; assay: Post-emergence herbicidal action against SETVI; assay type: in vivo, Setaria viridis; conditions: 80 g/ha, visual assessment about 3 weeks after treatment vs untreated controls
Summary of the method: as §2

[16] = tested on: VIOTR; assay: Post-emergence herbicidal action against VIOTR; assay type: in vivo, Viola tricolor; conditions: 80 g/ha, visual assessment about 3 weeks after treatment vs untreated controls
Procedure: Seeds of monocotyledonous and dicotyledonous weed and crop plants are laid out in sandy loam soil in wood-fiber pots, covered with soil and cultivated in a greenhouse under good growth conditions. 2 to 3 weeks after sowing, the test plants are treated at the one-leaf stage. The compounds of the invention, formulated in the form of wettable powders (WP) or as emulsion concentrates (EC), are then sprayed onto the green parts of the plants as aqueous suspension or emulsion at a water application rate equating to 600 to 800 l/ha with addition of 0.2% wetting agent. After the test plants have been left to stand in the greenhouse under optimal growth conditions for about 3 weeks, the action of the preparations is assessed visually in comparison to untreated controls (herbicidal action in percent (%): 100% activity=the plants have died, 0% activity=like control plants).

[17] = tested on: ABUTH; assay: Pre-emergence herbicidal action against ABUTH; assay type: in vivo, Abutylon threophrasti; conditions: 320 g/ha
From the text: Seeds of monocotyledonous and dicotyledonous weed plants and crop plants are laid out in sandy loam soil in wood-fiber pots and covered with soil. The compounds of the invention, formulated in the form of wettable powders (WP) or as emulsion concentrates (EC), are then applied to the surface of the covering soil as aqueous suspension or emulsion at a water application rate equating to 600 to 800 L/ha with addition of 0.2% wetting agent.
After the treatment, the pots are placed in a greenhouse and kept under good growth conditions for the trial plants. The damage to the test plants is scored visually after a test period of 3 weeks by comparison with untreated controls (herbicidal activity in percent (%): 100% activity=the plants have died, 0% activity=like control plants).

[18] = tested on: MATIN; assay: Pre-emergence herbicidal action against MATIN; assay type: in vivo; conditions: 320 g/ha
Summary of the method: as §1

[19] = tested on: POLCO; assay: Pre-emergence herbicidal action against POLCO; assay type: in vivo, Polygonum convolvulus; conditions: 320 g/ha
Summary of the method: as §1

[20] = tested on: ABUTH; assay: Post-emergence herbicidal action against ABUTH; assay type: in vivo, Abutylon threophrasti; conditions: 80 g/ha, visual assessment about 3 weeks after treatment vs untreated controls
Summary of the method: as §2

Row | SMILES | Pre-emergence action against ALOMY in % [1] | Pre-emergence action against AVEFA in % [2] | Pre-emergence action against DIGSA in % [3] | Pre-emergence action against ECHCG in % [4] | Pre-emergence herbicidal action against LOLRI in % [5] | Pre-emergence action against SETVI in % [6] | Pre-emergence action against AMARE in % [7] | Pre-emergence action against VIOTR in % [8] | Pre-emergence action against VERPE in % [9] | Post-emergence action against ALOMY in % [10] | Post-emergence action against AVEFA in % [11] | Post-emergence action against DIGSA in % [12] | Post-emergence action against ECHCG in % [13] | Post-emergence action against LOLRI in % [14] | Post-emergence action against SETVI in % [15] | Post-emergence action against VIOTR in % [16] | Pre-emergence action against ABUTH in % [17] | Pre-emergence action against MATIN in % [18] | Pre-emergence action against POLCO in % [19] | Post-emergence action against ABUTH in % [20]
1 | CC#Cc1cc(C)c(C2=C(OC(=O)OCC)C3(CCC(COCC)C3)NC2=O)c(Br)c1 (stereo not drawn) [Example P-35] | 100% | 100% | 100% | 100% | 100% | 100% | 100% | 100% | 80% | 100% | 80% | 100% | 90% | 100% | 100% | 90% | – | – | – | –
2 | CC#Cc1cc(Br)c(C2=C(OC(=O)OCC)C3(CCC(COC)C3)NC2=O)c(OC)c1 (stereo not drawn) [Example P-08] | 100% | 100% | 100% | 100% | 100% | 100% | – | 90% | 90% | 100% | – | 100% | 100% | 100% | 100% | – | 80% | 80% | 100% | 80%
3 | C=CCOCC1CCC2(C1)NC(=O)C(c1c(C)cc(C#CC)cc1OC)=C2O (stereo not drawn) [Example I-47] | 100% | 90% | 100% | 100% | 100% | 100% | – | 100% | – | 100% | 90% | – | 100% | 100% | – | 100% | – | – | – | –
